Values quoted from earlier work, collected in patent publication US20210236523A1, “P[…] FOR HEADACHE DISORDERS” (priority 2020, published 2021).
“Also recorded” adds a separate entry of the source.

Key:
cluster headache = details: et al., cited from earlier work
5-HT1 = details: cited from earlier work
5-HT2B = 5-HT2B (Homo sapiens, UniProt P41595); details: cited from earlier work
5-HT2A = 5-HT2A (Homo sapiens, UniProt P28223); details: cited from earlier work
dopamine receptor = details: cited from earlier work

Sequence of 5-HT2A (P28223 whole entry): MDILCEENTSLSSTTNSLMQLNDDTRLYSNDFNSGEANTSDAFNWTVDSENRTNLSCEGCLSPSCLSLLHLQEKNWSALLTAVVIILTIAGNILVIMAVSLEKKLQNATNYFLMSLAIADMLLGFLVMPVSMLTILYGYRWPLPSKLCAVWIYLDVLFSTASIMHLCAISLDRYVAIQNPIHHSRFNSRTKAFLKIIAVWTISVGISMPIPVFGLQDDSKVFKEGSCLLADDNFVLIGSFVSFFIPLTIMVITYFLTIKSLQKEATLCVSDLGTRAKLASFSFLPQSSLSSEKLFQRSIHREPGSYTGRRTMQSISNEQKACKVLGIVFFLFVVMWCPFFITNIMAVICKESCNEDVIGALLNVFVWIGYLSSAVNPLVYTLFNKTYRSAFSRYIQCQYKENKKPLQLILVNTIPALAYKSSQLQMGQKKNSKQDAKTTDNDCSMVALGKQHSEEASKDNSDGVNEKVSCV
Sequence of 5-HT2B (P41595 whole entry, species assumed): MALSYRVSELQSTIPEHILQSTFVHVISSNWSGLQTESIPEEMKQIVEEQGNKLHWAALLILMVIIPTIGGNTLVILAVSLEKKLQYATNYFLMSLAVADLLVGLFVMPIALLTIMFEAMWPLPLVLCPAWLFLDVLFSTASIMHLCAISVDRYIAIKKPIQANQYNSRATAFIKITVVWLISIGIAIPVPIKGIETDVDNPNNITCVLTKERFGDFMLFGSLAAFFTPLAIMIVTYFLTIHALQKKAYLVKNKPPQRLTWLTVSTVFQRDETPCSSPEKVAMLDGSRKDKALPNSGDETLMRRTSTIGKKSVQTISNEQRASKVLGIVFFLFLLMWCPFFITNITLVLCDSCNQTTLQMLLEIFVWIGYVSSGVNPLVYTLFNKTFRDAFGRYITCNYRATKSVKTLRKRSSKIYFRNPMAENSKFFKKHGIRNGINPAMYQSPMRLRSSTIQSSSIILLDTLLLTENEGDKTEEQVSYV

## CCN(CC)C(=O)[C@@H]1C=C2c3cccc4[nH]c(Br)c(c34)C[C@H]2N(C)C1 [BOL-148, 2-bromo-lysergic acid diethylamide]
Cluster headache; three single oral doses of 30 μg/kg, Karst, 2010
  effect on cluster headache cycle and attacks: either break a cluster headache cycle or considerably improve the frequency and intensity of attacks

## CCN(CC)C(=O)[C@@H]1C=C2c3cccc4[nH]cc(c34)C[C@H]2N(C)C1 [LSD, lysergic acid diethylamide]
Cluster headache; Sewell, 2006, Schindler et al., 2015
  reported effects in cluster headache: stop acute cluster attacks, terminate cluster cycles, and induce and prolong remission from cluster headache

## CN(C)CCc1c[nH]c2cccc(O)c12 [psilocin]
5-HT1
  affinity for 5-HT1: low affinity
5-HT2B
  affinity for 5-HT2B: high affinity
5-HT2A
  affinity for 5-HT2A: high affinity; also recorded: modest affinity
Dopamine receptor
  effect on the dopamine receptor: no effect
